From ChEMBL document CHEMBL3352702, “Design, synthesis and in vitro antikinetoplastid evaluation of N-acylated putrescine, spermidine and spermine derivatives” (Bioorg Med Chem Lett, 2015)

Experiments:
Leishmania donovani = test: Antikinetoplastid activity against Leishmania donovani LV9 […] amastigotes in mouse RAW264.7 cells assessed as viability measured 24 hrs by SYBR green assay; assay type: functional, organism-based; details: LV9, RAW264.7, 24 h
Trypanosoma brucei = test: Antikinetoplastid activity against Trypanosoma brucei gambiense assessed as parasite growth inhibition; assay type: functional, organism-based
RAW264.7 = test: Cytotoxicity against mouse RAW264.7 cells assessed as reduction in cell viability up to 100 uM; assay type: cell-based
[1] = Selectivity index, ratio of cytotoxicity against mouse RAW264.7 cells to IC50 for Trypanosoma brucei gambiense; assay type: toxicity, cell-based; details: read-out: Selectivity Index

Compound | IC50 (Trypanosoma brucei) [µM] | IC50 (Leishmania donovani) [µM] | Activity (RAW264.7) | selectivity ratio [1]
CCCCCCCCCCCCCCCCOP(=O)([O-])OCC[N+](C)(C)C [MILTEFOSINE] |  | 10.2 |  | 
COCC(=O)N(CCCCNC(=O)OC(C)(C)C)CCCNC(=O)OC(C)(C)C | > 100 | > 100 | Non-toxic | 
COCC(=O)NCCCCNC(=O)OC(C)(C)C | > 100 | > 100 | Non-toxic | 
COCC(=O)N(CCCN)CCCCN.Cl | > 100 | > 100 | Non-toxic | 
CC(C)(C)OC(=O)NCCCCN(CCC#N)C(=O)OC(C)(C)C | > 100 | > 100 | Non-toxic | 
COCC(=O)NCCCN(CCCCNC(=O)OC(C)(C)C)C(=O)OC(C)(C)C | > 100 | > 100 | Non-toxic | 
COCC(=O)NCCCCN(CCCNC(=O)OC(C)(C)C)C(=O)OC(C)(C)C | > 100 | > 100 | Non-toxic | 
COCC(=O)NCCCCN.Cl | > 100 | > 100 | Non-toxic | 
COCC(=O)NCCCNCCCCN.Cl | > 100 | 5.47 | Non-toxic | 
CC(C)(C)OC(=O)NCCCCN | > 100 | > 100 | Non-toxic | 
CC(C)(C)OC(=O)NCCCCNCCCNC(=O)OC(C)(C)C | > 100 | > 100 | Non-toxic | 

Further compounds by falling IC50 (Trypanosoma brucei), results first:

IC50 (Trypanosoma brucei) [µM] | Compound | IC50 (Leishmania donovani) [µM] | Activity (RAW264.7) | selectivity ratio [1]
15.6 | COCC(=O)NCCCCNCCCN.Cl | 50 | Non-toxic | 
14.8 | CC(=O)NCCSCC(=O)NCCCNCCCCN.Cl | 70.8 | Non-toxic | 
11.6 | CC(C)(C)OC(=O)NCCCCN(CCCN)C(=O)OC(C)(C)C | > 100 | Non-toxic | 
11.5 | CC(=O)NCCC(=O)NCCSCC(=O)NCCCNCCCCN.Cl | > 100 | Non-toxic | 
5.75 | CC(=O)NCCSCC(=O)NCCCCNCCCN.Cl | > 100 | Non-toxic | 
2.98 | CC(=O)NCCC(=O)NCCSCC(=O)NCCCNCCCCNCCCN.Cl | > 100 | Non-toxic | 
1.92 | CC(=O)NCCSCC(=O)NCCCNCCCCNCCCN.Cl | > 100 | Non-toxic | > 52
0.011 | N=C(N)c1ccc(OCCCCCOc2ccc(C(=N)N)cc2)cc1 [PENTAMIDINE] | 4.21 |  | 
